Laboratory results: US7166452B2, “Aminoketone asymmetric reductase and nucleic acid thereof” (priority 2001, dated 2007)

Tests used:
[1] = tested on: aminoketone asymmetric reductase; assay: Substrate specificity and enzyme activity of purified enzyme (NADPH absorbance at 340 nm); format: biochemical, Rhodococcus erythropolis; conditions: for enzyme acts on the compound (substrate specificity): purified enzyme
Protocol: (§1) While 10 μl of 1 M Tris-hydrochloric acid buffer solution (pH 8.0), 25 μl of 16 mM NADP^+, and 215 μl of the purified enzyme solution were held at 43° C., 1 μl of 1-amino-2-hydroxypropane was added thereto, whereby aminoacetone was produced. The increase or decrease in NADPH accompanying the reaction was measured by the change in absorbance at 340 nm. In the measurement of enzyme activity, the enzyme activity by which 1 μmol of 1-amino-2-hydroxypropane was oxidized per 1 min under the following condition was defined as 1 unit (U). As a result, the whole activity was 126 mU, the specific activity was 432 mU/mg, and the activity yield was 0.22%.
It was similarly confirmed that the enzyme acted on 1-2-methylaminopropiophenone, 1-2-dimethylaminopropiophenone, and 1-amino-2-butanone.

[2] = tested on: Rhodococcus erythropolis MAK-34; format: cell-based
[3] = tested on: Mycobacterium smegmatis IAM-12065; format: cell-based
[4] = tested on: Armillariella mellea IFO-31616; assay: Influence of inducer addition on d-pseudoephedrine production (Example 6); format: cell-based; conditions: cells cultured with inducer 5 g/L, medium 4
[5] = tested on: Aspergillus awamori IFO-4033; format: cell-based
[6] = tested on: Absidia lichtheimi IFO-4409; format: cell-based
[7] = tested on: Hypocrea gelatinosa IFO-9165; assay: Influence of inducer addition on d-pseudoephedrine production (Example 6); format: cell-based; conditions: cells cultured with inducer 5 g/L, medium 4
[8] = tested on: Mycobacterium chlorophenolicum IFO-15527; format: cell-based
[9] = tested on: Penicillium cyaneum IFO-5337; assay: Influence of inducer addition on d-pseudoephedrine production (Example 6); format: cell-based; conditions: cells cultured with inducer 5 g/L, medium 4
[10] = tested on: Nocardioides simplex IFO-12069; format: cell-based
[11] = tested on: Aspergillus candidus IFO-5468; format: cell-based
[12] = tested on: Tritirachium oryzae IFO-7544; format: cell-based
[13] = tested on: Helicostylum nigricans IFO-8091; format: cell-based
[14] = tested on: Klebsiella pneumoniae IFO-3319; format: cell-based
[15] = tested on: Rhodococcus erythropolis MAK-34 strain; format: cell-based
[16] = tested on: aminoketone asymmetric reductase; format: biochemical, Rhodococcus erythropolis; conditions: inhibitor at a concentration of 1 mM; purified enzyme
Protocol: as §1, with “(U).” for “(U). As a result, the whole activity was 126 mU, the specific activity was 432 mU/mg, and the activity yield was 0.22%.”

[17] = tested on: aminoketone asymmetric reductase; assay: Optimum pH and optimum temperature of purified enzyme; format: biochemical, Rhodococcus erythropolis; conditions: 1-amino-2-propanol, NADP+
Protocol: Ten microliters of the purified enzyme solution, 420 μL of water, 20 μL of 1 M Tris-hydrochloric acid buffer solution, and 50 μL of 16 mM aqueous NADP^+ solution was mixed, and incubated at 45° C., and 2 μL of 1-amino-2-propanol were added thereto, so as to react therewith. Using a spectrophotometer, the activity was calculated from the change in absorbance at 340 nm with time (FIG. 2). As a result, the optimum pH was about 8.1.
Ten microliters of the purified enzyme solution, 420 μL of water, 20 μL of 0.1 M PIPES buffer solution (pH 7.5), and 50 μL of 16 mM aqueous NADP^+ solution was mixed, and incubated at various temperatures, and 2 μL of 1-amion-2-propanol were added thereto, so as to react therewith. Using a spectrophotometer, the activity was calculated from the change in absorbance at 340 nm with time (FIG. 3). As a result, the optimum temperature was 55° C.

Molecule: CC(C(=O)c1ccccc1)N(C)C (centres unmarked) [1-2-dimethylaminopropiophenone]
- enzyme acts on the compound (substrate specificity) [1]: acted on

Molecule: CNC(C)C(=O)c1ccccc1 (centres unmarked) [1-2-methylaminopropiophenone]
- enzyme acts on the compound (substrate specificity) [1]: acted on

Molecule: CCC(=O)CN [1-amino-2-butanone]
- enzyme acts on the compound (substrate specificity) [1]: acted on

Molecule: CCC(O)CN (centres unmarked) [1-amino-2-hydroxybutane]
- AMOUNT OF PRODUCTION (ADDED) [2]: 0.65 mg
- AMOUNT OF PRODUCTION (ADDED) [3]: 0.17 mg

Molecule: NC1CCCCC1O (centres unmarked) [1-amino-2-hydroxycyclohexane]
- AMOUNT OF PRODUCTION (ADDED) [2]: 0.23 mg
- AMOUNT OF PRODUCTION (ADDED) [3]: 0.13 mg

Molecule: CC(O)CN (centres unmarked) [1-amino-2-hydroxypropane]
- AMOUNT OF PRODUCTION (ADDED) [4]: 0.460 mg
- AMOUNT OF PRODUCTION (ADDED) [5]: 1.170 mg
- AMOUNT OF PRODUCTION (ADDED) [6]: 0.220 mg
- AMOUNT OF PRODUCTION (ADDED) [7]: 0.640 mg
- AMOUNT OF PRODUCTION (ADDED) [8]: 0.770 mg
- AMOUNT OF PRODUCTION (ADDED) [9]: 1.260 mg
- AMOUNT OF PRODUCTION (ADDED) [10]: 0.190 mg
- AMOUNT OF PRODUCTION (ADDED) [2]: 1.260 mg
- AMOUNT OF PRODUCTION (ADDED) [11]: 0.018 mg
- AMOUNT OF PRODUCTION (ADDED) [12]: 0.078 mg
- enzyme acts on the compound (substrate specificity) [1]: acts on
- AMOUNT OF PRODUCTION (ADDED) [3]: 0.210 mg
- AMOUNT OF PRODUCTION (ADDED) [13]: 0.520 mg
- AMOUNT OF PRODUCTION (ADDED) [14]: 0.066 mg

Molecule: CC(=O)CN [1-amino-2-oxopropane]
- AMOUNT OF PRODUCTION [15]: 1.97 mg
- enzyme acts on the compound (substrate specificity) [1]: reduction activity

Molecule: O=C(O)CN(CCN(CC(=O)O)CC(=O)O)CC(=O)O [EDTA]
- enzyme activity inhibited by inhibitor [16]: inhibited

Molecule: c1cnc2c(c1)ccc1cccnc12 [o-phenanthroline]
- enzyme activity inhibited by inhibitor [16]: inhibited

Molecule: c1ccc(-c2ccccn2)nc1 [α,α′-dipyridyl]
- enzyme activity inhibited by inhibitor [16]: inhibited

B1: aminoketone asymmetric reductase: enzyme purified from Rhodococcus erythropolis MAK-34; SEQ ID NO:1; tetramer of about 28,500 subunits; coenzyme NADP (protein, listed as Rhodococcus erythropolis)
chain: MFNSIEGRSVVVTGGSKGIGLGMVRVFARAGANVLMTARDALTLERAAEGLNGLPGAVSTLQVDVTNPDSLAGMAEVAAERHGGIDVLCANAGIFPSKRLGEMTSEDMDSVFGVNVKGTIHAVQACMPWLETSGRGRVVVTSSITGPVTGYPGWSHYGASKAAQMGFIRTAAIELAPKRITINAVLPGNVITEGLDGLGQEYLDQMASSVPAGSLGSVEDIANAALFFALDEAAYITGQSLIVDGGQVLPESAMALGEL
modifications: tetramer
notes: enzyme purified from Rhodococcus erythropolis MAK-34; tetramer of about 28,500 subunits; coenzyme NADP
- optimum temperature ([17]; PIPES buffer pH 7.5): 55 °C
- optimum pH ([17]; Tris-hydrochloric acid buffer, 45° C.): about 8.1
- specific activity ([1]; oxidation of 1-amino-2-hydroxypropane, NADP+, pH 8.0, 43° C., 1 U = 1 μmol per 1 min): 432 mU/mg
